Measured values published in patent publication US20230348424A1, “HETEROCYCLIC COMPOUNDS AND METHODS OF USE” (Schrödinger, Inc., priority 2022, published 2023).
pIC50: −log10 of the molar value.

Molecular target: SOS1:KRAS (G12C) interaction (Homo sapiens (Human), UniProt Q07889)
Assay: SOS1 KRas(G12C) FRET Assay
Format: binding
Settings: 0.5 nM His10-SOS1 (res. 564-1049), 2.5 nM GST-KRAS G12C (res. 1-169), 2 hrs at RT
Summary of the method: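 GST-KRAS G12C (res. 1-169) at 2.5 nM and His10-SOS1 (res. 564-1049) at 0.5 nM, final, in PBS with 0.1% BSA, 5 mM MgCl2, 100 mM KF, 5 mM DTT and 0.5% DMSO. After 2 h at RT, FRET read at 665/615 nm and normalized to DMSO and no-SOS1 controls. IC50 by non-linear regression.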

Sequence of SOS1:KRAS (G12C) interaction (Q07889 564-1049, stated change not applied): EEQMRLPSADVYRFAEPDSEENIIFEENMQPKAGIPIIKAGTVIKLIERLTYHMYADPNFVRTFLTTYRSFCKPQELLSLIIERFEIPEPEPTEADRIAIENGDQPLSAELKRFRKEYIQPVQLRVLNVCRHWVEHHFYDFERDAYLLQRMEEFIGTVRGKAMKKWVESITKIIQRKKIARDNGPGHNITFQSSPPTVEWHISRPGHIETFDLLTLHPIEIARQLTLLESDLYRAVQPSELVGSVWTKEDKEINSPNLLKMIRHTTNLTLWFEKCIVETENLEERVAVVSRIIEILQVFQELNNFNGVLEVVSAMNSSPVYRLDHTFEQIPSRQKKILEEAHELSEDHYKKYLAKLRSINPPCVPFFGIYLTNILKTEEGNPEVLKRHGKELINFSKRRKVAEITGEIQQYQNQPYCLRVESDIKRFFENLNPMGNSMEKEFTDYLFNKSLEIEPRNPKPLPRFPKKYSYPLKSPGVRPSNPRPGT

Compound	pIC50
C[C@@H](NC(=O)c1cn(C2(C(F)F)CC2)c(=O)cc1NC1CCN(C)CC1)c1cccc2c(F)coc12 [Example 54, (R)-1-(1-(difluoromethyl)cyclopropyl)-N-(1-(3-fluorobenzofuran-7-yl)ethyl)-4-((1-methylpiperidin-4-yl)amino)-6-oxo-1,6-dihydropyridine-3-carboxamide]	7.58
C[C@@H](NC(=O)c1cn(C2(C(F)F)CC2)c(=O)cc1N[C@@H]1[C@@H]2CN(C)C[C@@H]21)c1cccc(C(F)F)c1F [Example 56, N-((R)-1-(3-(difluoromethyl)-2-fluorophenyl)ethyl)-1-(1-(difluoromethyl)cyclopropyl)-4-(((1R,5S,6r)-3-methyl-3-azabicyclo[3.1.0]hexan-6-yl)amino)-6-oxo-1,6-dihydropyridine-3-carboxamide]	7.47
[2H]C([2H])([2H])N1C[C@@H]2[C@H](C1)[C@H]2Nc1cc(=O)n(C2(C(F)F)CC2)cc1C(=O)N[C@H](C)c1cccc(C(F)F)c1F [Example 57, N-((R)-1-(3-(difluoromethyl)-2-fluorophenyl)ethyl)-1-(1-(difluoromethyl)cyclopropyl)-4-(((1R,5S,6s)-3-(methyl-d3)-3-azabicyclo[3.1.0]hexan-6-yl)amino)-6-oxo-1,6-dihydropyridine-3-carboxamide]	7.55
CCN1C[C@@H]2[C@H](C1)[C@H]2Nc1cc(=O)n(C2(C(F)F)CC2)cc1C(=O)N[C@H](C)c1cccc(C(F)F)c1F [Example 58, N-((R)-1-(3-(difluoromethyl)-2-fluorophenyl)ethyl)-1-(1-(difluoromethyl)cyclopropyl)-4-(((1R,5S,6s)-3-ethyl-3-azabicyclo[3.1.0]hexan-6-yl)amino)-6-oxo-1,6-dihydropyridine-3-carboxamide]	7.51
CC(C)N1C[C@@H]2[C@H](C1)[C@H]2Nc1cc(=O)n(C2(C(F)F)CC2)cc1C(=O)N[C@H](C)c1cccc(C(F)F)c1F [Example 59, N-((R)-1-(3-(difluoromethyl)-2-fluorophenyl)ethyl)-1-(1-(difluoromethyl)cyclopropyl)-4-(((1R,5S,6s)-3-isopropyl-3-azabicyclo[3.1.0]hexan-6-yl)amino)-6-oxo-1,6-dihydropyridine-3-carboxamide]	7.50
C[C@@H](NC(=O)c1cn(C2(C(F)F)CC2)c(=O)cc1N[C@H]1[C@@H]2CN(C3CC3)C[C@@H]21)c1cccc(C(F)F)c1F [Example 60, 4-(((1R,5S,6s)-3-cyclopropyl-3-azabicyclo[3.1.0]hexan-6-yl)amino)-N-((R)-1-(3-(difluoromethyl)-2-fluorophenyl)ethyl)-1-(1-(difluoromethyl)cyclopropyl)-6-oxo-1,6-dihydropyridine-3-carboxamide]	7.39
C[C@@H](NC(=O)c1cn(C23CC(C2)C3)c(=O)cc1N[C@H]1[C@@H]2CNC[C@@H]21)c1cccc(C(F)F)c1F [Example 89, 4-(((1R,5S,6s)-3-azabicyclo[3.1.0]hexan-6-yl)amino)-1-(bicyclo[1. 1.1]pentan-1-yl)-N-((R)-1-(3-(difluoromethyl)-2-fluorophenyl)ethyl)-6-oxo-1,6-dihydropyridine-3-carboxamide]	7.64
Cc1c([C@@H](C)NC(=O)c2cn(C3CCOCC3)c(=O)cc2SC2CCNCC2)cccc1C(F)(F)F [Example 157, (R)-N-(1-(2-methyl-3-(trifluoromethyl)phenyl)ethyl)-6-oxo-4-(piperidin-4-ylthio)-1-(tetrahydro-2H-pyran-4-yl)-1,6-dihydropyridine-3-carboxamide]	6.66
CN1C[C@@H]2[C@H](C1)[C@H]2Nc1cc(=O)n(C2(C(F)F)CC2)cc1C(=O)N[C@@H](c1cccc(C(F)F)c1F)C(F)F [Example 158, N-((S)-1-(3-(difluoromethyl)-2-fluorophenyl)-2,2-difluoroethyl)-1-(1-(difluoromethyl)cyclopropyl)-4-(((1R,5S,6s)-3-methyl-3-azabicyclo[3.1.0]hexan-6-yl)amino)-6-oxo-1,6-dihydropyridine-3-carboxamide]	7.09

The next molecules have a higher pIC50 than those just listed; values first:

pIC50	Compound
7.66	C[C@@H](NC(=O)c1cn([C@@H]2C[C@H]2C2CC2)c(=O)cc1N[C@H]1[C@@H]2CN(C)C[C@@H]21)c1cccc(C(F)F)c1F [Example 71, 1-((1S,2R)-[1,1′-bi(cyclopropan)]-2-yl)-N-((R)-1-(3-(difluoromethyl)-2-fluorophenyl)ethyl)-4-(((1R5S,6s)-3-methyl-3-azabicyclo[3.1.0]hexan-6-yl)amino)-6-oxo-1,6-dihydropyridine-3-carboxamide]
7.70	C[C@@H](NC(=O)c1cn(C2(C(F)F)CC2)c(=O)cc1NC1CCN(C2CC2)CC1)c1cccc(C(F)F)c1F [Example 62, (R)-4-((1-cyclopropylpiperidin-4-yl)amino)-N-(1-(3-(difluoromethyl)-2-fluorophenyl)ethyl)-1-(1-(difluoromethyl)cyclopropyl)-6-oxo-1,6-dihydropyridine-3-carboxamide]
7.81	C[C@@H](NC(=O)c1cn(C2(C(F)F)CC2)c(=O)cc1NC1CCN(C)CC1)c1cccc2c1OCC2(F)F [Example 53, (R)-N-(1-(3,3-difluoro-2,3-dihydrobenzofuran-7-yl)ethyl)-1-(1-(difluoromethyl)cyclopropyl)-4-((1-methylpiperidin-4-yl)amino)-6-oxo-1,6-dihydropyridine-3-carboxamide]
7.81	C[C@@H](NC(=O)c1cn(C2(C(F)(F)F)CC2)c(=O)cc1NC1CCN(C)CC1)c1cccc(C(F)F)c1F [Example 75, (R)-N-(1-(3-(difluoromethyl)-2-fluorophenyl)ethyl)-4-((1-methylpiperidin-4-yl)amino)-6-oxo-1-(1-(trifluoromethyl)cyclopropyl)-1,6-dihydropyridine-3-carboxamide]
7.86	C[C@@H](NC(=O)c1cn(C2(CF)CC2)c(=O)cc1NC1CCN(C)CC1)c1cccc(C(F)F)c1F [Example 77, (R)-N-(1-(3-(difluoromethyl)-2-fluorophenyl)ethyl)-1-(1-(fluoromethyl)cyclopropyl)-4-((1-methylpiperidin-4-yl)amino)-6-oxo-1,6-dihydropyridine-3-carboxamide]
7.90	C[C@@H](NC(=O)c1cn(C2(C(F)F)CCC2)c(=O)cc1NC1CCN(C)CC1)c1cccc(C(F)F)c1F [Example 76, (R)-N-(1-(3-(difluoromethyl)-2-fluorophenyl)ethyl)-1-(1-(difluoromethyl)cyclobutyl)-4-((1-methylpiperidin-4-yl)amino)-6-oxo-1,6-dihydropyridine-3-carboxamide]
7.91	C[C@@H](NC(=O)c1cn(C2CCC2)c(=O)cc1N[C@H]1[C@@H]2CN(C)C[C@@H]21)c1cccc(C(F)F)c1F [Example 150, 1-cyclobutyl-N-((R)-1-(3-(difluoromethyl)-2-fluorophenyl)ethyl)-4-(((1R,5S,6s)-3-methyl-3-azabicyclo[3.1.0]hexan-6-yl)amino)-6-oxo-1,6-dihydropyridine-3-carboxamide]
9.05	C[C@@H](NC(=O)c1cn(C2(C)CN(C(=O)C3CC3)C2)c(=O)cc1NC1CCN(C)CC1)c1cccc(C(F)F)c1F [Example 78, (R)-1-(1-(cyclopropanecarbonyl)-3-methylazetidin-3-yl)-N-(1-(3-(difluoromethyl)-2-fluorophenyl)ethyl)-4-((1-methylpiperidin-4-yl)amino)-6-oxo-1,6-dihydropyridine-3-carboxamide]
